{
  "source": "patent US4743589A",
  "about": "“Treatment of endometriosis” (Roussel UCLAF, priority 1979, dated 1988)",
  "key": {"[1]": {"system": "ovarian steroidogenosis", "assay": "inhibitory activity on ovarian steroidogenosis in women (seric progesterone by radioimmunoassay)", "assay_type": "in vivo", "settings": "for seric level of progesterone, reduction compared to the controls: 500 μg intranasal at 8 A.M. and 5 P.M. of one luteal-phase day, typical case (sheet 3); for level of progesterone as % of pretreatment cycles (100%): 12 cycles", "experimental": "The study was conducted for 6 consecutive cycles consisting of 2 pretreatment cycles, 2 treatment cycles and 2 post-treatment cycles. […] Daily blood samples were taken between 4 and 6 P.M. to measure seric levels of LH, FSH, progesterone and estradiol which were determined by radioimmuno-logictests with double antibodies. The antibodies to measure LH and FSH were furnished by the National Pituitory Agency of N.I.H. of Bethesda, Md.\nEstradiol and progesterone were measured with highly specific antibodies developed against 7-(0-carboxymethyl)-oxime of estradiol and 12-(0-carboxymethyl)-oxime of progesterone, respectively [3H] 17β-estradiol and ^125 I-progesterone-12-[0-carboxymethyl)-oxime]used as tracers. The serum was extracted with benzene and the steroids were separated with a LH-20 column before the determination. The radioimmunological results were exploited by the program derived from model II of Rodbard and Lewald as in Example 1 and the statistical significance was measured by the multiple level test of Ducan-Kramer of Example 1. The results shown in the graphs of sheets 3 to 5 of the Figures."}, "[2]": {"system": "testicular steroidogensis", "assay": "inhibitory activity against testicular steroidogenesis in men in good health (seric LH, FSH and steroids by radioimmunoassay)", "assay_type": "in vivo", "experimental": "The said product was administered intranasally at a dose of 500 μg in a few drops of distilled water at 8 A.M. on the third day of the test. For 2 days prior to the treatment and for 6 days after the treatment, samples of blood were taken daily at 8 A.M., 3 P.M. and 10 P.M. On the day of administration of the LH-RH agonist, blood samples were taken at 11 A.M. and 6 P.M.\nThe series concentrations of LH and FSH were measured by radioimmuno-logic dosages with double antibodies and the antibodies for measuring LH and FSH were furnished by the National Pituitary Agency of N.I.H. in Bethesda, Md. The seric concentrations of steroids was measured by radioimmuno-logic dosages in which one ml of serum was extracted with ether and the steroids were separated on a LH-20 column before measuring with radioimmuno-logic dosages. The radioimmuno-logic dosage results were determined by a program derived from model II of Rodbard et al [Second Karolinska Symposium on Research Methods in Reproductive Endrocrinology, Diczfalusky Editor, Copenhague (1970), p. 79-103]. The statistical significance was determined by the \"multiple level test\" of Duncan-Kramer [Kramer, Biometrics, Vol. 12 (1956), p. 307]. The results are shown in the graphs on sheet 1 of the Figures filed herewith."}, "[3]": {"system": "testicular steroidogenosis", "assay": "inhibitory activity on testicular steroidogenosis in a patient with prostate cancer", "assay_type": "in vivo, human", "settings": "intranasal 500 μg twice a day", "text": "The inhibitory activity of [D Ser (tbu)^6 des Gly NH2^10 ] […] The results are reported in the graphs of sheet 2 of the Figures."}, "[4]": {"settings": "12 cycles of treatment (sheet 5)"}},
  "data": [
    {"smiles": "CCNC(=O)[C@@H]1CCCN1C(=O)[C@H](CCCNC(=N)N)NC(=O)[C@H](CC(C)C)NC(=O)[C@@H](COC(C)(C)C)NC(=O)[C@H](Cc1ccc(O)cc1)NC(=O)[C@H](CO)NC(=O)[C@H](Cc1c[nH]c2ccccc12)NC(=O)[C@H](Cc1c[nH]cn1)NC(=O)[C@@H]1CCC(=O)N1", "note": "[[D Ser (tbu)^6 des Gly NH2^10]LH-RH ethylamide]", "values": [
      {"measurement": "seric level of progesterone, reduction compared to the controls", "setting": "[1]; first cycle of treatment", "result": 13, "unit": "%"},
      {"measurement": "seric level of progesterone, reduction compared to the controls", "setting": "[1]; second cycle of treatment", "result": 34, "unit": "%"},
      {"measurement": "level of progesterone, reduction compared to the controls", "setting": "[1]; [4]", "result": 46, "unit": "%"},
      {"measurement": "scale (range) of the level of progesterone compared to the controls", "setting": "[1]; [4]", "result": "13 to 127", "unit": "%"},
      {"measurement": "level of progesterone as % of pretreatment cycles (100%)", "setting": "[1]; cycles of post-treatment", "result": 99, "unit": "%"},
      {"measurement": "level of progesterone as % of pretreatment cycles (100%)", "setting": "[1]; cycles of treatment", "result": 46, "unit": "%"},
      {"measurement": "day after administration on which the steroid level returned to normal", "setting": "[2]; human, single intranasal dose 500 μg", "result": "fourth day"},
      {"measurement": "time to return of LH and FSH to normal levels after administration", "setting": "[2]; men, intranasal 500 μg", "result": "8 to 12", "unit": "h"},
      {"measurement": "seric concentration of 17β-estradiol after the deferred elevation", "setting": "[2]; men, intranasal 500 μg, day after treatment, different subjects, elevated from 20 to 35", "result": "100 to 250", "unit": "pg/mL"},
      {"measurement": "seric concentration of pregnenolone, 17-OH-pregnenolone, progesterone, 17-OH-progesterone, Δ5-androstene-3β,17β-diol and testosterone on the day of treatment", "setting": "[2]; men, intranasal 500 μg, day of treatment", "result": "increased"},
      {"measurement": "level of androgenic steroids in plasma", "setting": "[3]", "result": "diminution"},
      {"measurement": "level of testosterone", "setting": "[3]; two weeks of treatment", "result": "stabilized at a very low level"}
    ]}
  ]
}
